The text below walks through data of PubChem BioAssay (NCI).

Values joined by “and” are separate entries in the source; they are usually repeats but may differ in a detail not shown here. Equal values may be shown once.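 Grown in 96-well plates, cells were treated for 48 hours with each compound at five concentrations. Insufficient inhibition: endpoint recorded as highest concentration tested. Here, GI50 denotes the concentration required for 50% inhibition of growth. At the TGI there is no net growth.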 Where only a bound is given, the exact number is not on record here.

Some test systems named below: MDA-MB-435; UO-31 renal; OVCAR-3 ovarian; KM12 colon; HCT-15 colon; COLO 205 colon; DLD-1 colon; LXFL 529 NSCLC; M19-MEL melanoma.
What all share (experiment): NCI anticancer screen, dose series, 48 h

On to `O=C1/C(=C\c2ccccc2)CN(C(=O)c2ccccc2)C/C1=C\c1ccccc1`, for which the GI50 is 1.61 µM in the assay with MDA-MB-435; 1.7 µM in the assay on UO-31 renal; 2.69 µM with OVCAR-3 ovarian; 1.79 µM in the assay with KM12 colon; 2.02 µM with HCT-15 colon; 2.72 µM in the assay with COLO 205 colon. The TGI in the assay on MDA-MB-435 amounted to 5 µM; in the assay on UO-31 renal, 3.92 µM; in the assay with OVCAR-3 ovarian, 6.34 µM; in the assay on KM12 colon it was 3.4 µM; in the assay on HCT-15 colon, 5.9 µM; in the assay with COLO 205 colon it was 7.01 µM.

Take `COc1ccc(C2CC(c3ccc4ccccc4c3)=NN2c2nc(O)c(C3=c4cc(OC)ccc4=NC3=O)s2)cc1` (centres undefined): the GI50 in the assay on MDA-MB-435 is 0.0351 µM; in the assay with UO-31 renal it was 0.202 µM; in the assay on OVCAR-3 ovarian, 0.0569 µM; in the assay with KM12 colon it was 0.0856 µM; in the assay on HCT-15 colon, 0.0973 µM; with COLO 205 colon it was 0.0382 µM. The TGI with MDA-MB-435 was 0.134 µM; in the assay with UO-31 renal it was 0.414 µM; in the assay with OVCAR-3 ovarian it was 0.17 µM; in the assay on KM12 colon it was 0.286 µM; in the assay with HCT-15 colon, 1.09 µM; in the assay on COLO 205 colon, 0.129 µM.

For the compound `NC(=O)CCc1ccccc1Oc1nccc(-c2c(-c3ccc(F)cc3)ncn2C2CCNCC2)n1`, the GI50 with MDA-MB-435, with UO-31 renal, in the assay on OVCAR-3 ovarian, in the assay with KM12 colon, in the assay on HCT-15 colon and in the assay on COLO 205 colon was above 25 µM in each case. For the same compound, the TGI with MDA-MB-435, in the assay with UO-31 renal, in the assay on OVCAR-3 ovarian, in the assay on KM12 colon, in the assay with HCT-15 colon and in the assay on COLO 205 colon was above 25 µM throughout.

Regarding `CC1CCC2CC1NC(=O)CCOCCC(=O)NC2(C)C` (centres undefined), the TGI in the assay on MDA-MB-435, in the assay with UO-31 renal, with OVCAR-3 ovarian, with KM12 colon, in the assay with HCT-15 colon and with COLO 205 colon was above 100 µM in each case.

Turning to `O=c1[nH]c2ccccc2n2cc3ccccc3c12`, the GI50 in the assay on MDA-MB-435 is 16.3 µM; in the assay with UO-31 renal, 12.6 µM; in the assay on OVCAR-3 ovarian, 18.6 µM; in the assay on KM12 colon, 19.2 µM; in the assay with HCT-15 colon it was 3.31 µM; in the assay with COLO 205 colon it was 4.52 µM. For the same compound, the TGI with MDA-MB-435 was 31 µM; in the assay on UO-31 renal, 26.6 µM; with OVCAR-3 ovarian, 36.7 µM; in the assay with KM12 colon it was 40 µM; in the assay with HCT-15 colon, 18.6 µM; with COLO 205 colon it was above 100 µM.

As to `Cc1ccc(C(=O)N2CCCCC2)cc1N=NN(C)C`, the TGI in the assay with UO-31 renal, with DLD-1 colon, with OVCAR-3 ovarian, with KM12 colon, in the assay with LXFL 529 NSCLC and in the assay on HCT-15 colon was above 100 µM in each case. Also, the TGI with M19-MEL melanoma and in the assay with COLO 205 colon was above 100 µM in each case.

On to `O=C(/C=C/c1cccc(S(=O)(=O)Nc2ccccc2)c1)NO`, for which the GI50 was 0.29 µM and 0.194 µM in the assay on MDA-MB-435; 0.448 µM and 0.134 µM in the assay with UO-31 renal; 0.565 µM and 0.512 µM in the assay on OVCAR-3 ovarian; 0.426 µM and 0.0714 µM in the assay on KM12 colon; 1.08 µM and 1.29 µM with HCT-15 colon; 0.353 µM and 0.118 µM with COLO 205 colon. Further, the TGI is 3.48 µM and 2.07 µM with MDA-MB-435; 5.91 µM and 29.5 µM in the assay on UO-31 renal; 4.16 µM and 3.76 µM in the assay on OVCAR-3 ovarian; 9.14 µM and 10.7 µM in the assay on KM12 colon; > 48.9 µM and 68.5 µM in the assay with HCT-15 colon.

As for `O=[N+]([O-])/C=C/c1cc2ccc3ccccc3c2[nH]1`, the TGI in the assay with MDA-MB-435 is 3.73 µM; in the assay with UO-31 renal, 3.05 µM; in the assay with OVCAR-3 ovarian, 3.11 µM; in the assay with KM12 colon it was 3.99 µM; in the assay with HCT-15 colon, above 23.7 µM; in the assay with COLO 205 colon, 4.29 µM.

Consider `Cc1cc(=O)oc2cc(OC(=O)Nc3ccccc3)ccc12`, for which the TGI in the assay on MDA-MB-435, with UO-31 renal, in the assay on OVCAR-3 ovarian, with KM12 colon, in the assay on HCT-15 colon and with COLO 205 colon was above 100 µM each time.

`O=Cc1ccc(-c2ccc(-c3ccc(C=O)o3)[se]2)o1`: the GI50 with MDA-MB-435 is above 100 µM; in the assay on UO-31 renal, above 100 µM; with OVCAR-3 ovarian, above 100 µM; in the assay on KM12 colon it was above 100 µM; with HCT-15 colon it was above 80 µM; in the assay with COLO 205 colon, above 100 µM. The TGI in the assay on MDA-MB-435, in the assay with UO-31 renal, in the assay on OVCAR-3 ovarian, with KM12 colon, in the assay on HCT-15 colon and with COLO 205 colon was above 100 µM throughout.

Take `C/C(=N\O)c1cccc(Nc2cc(-c3ccccc3)nc3c(O)cccc23)c1`: the GI50 with MDA-MB-435 was 0.271 µM; with UO-31 renal it was 11.2 µM; in the assay on OVCAR-3 ovarian, 1.1 µM; with KM12 colon, 0.836 µM; in the assay on HCT-15 colon, 2.77 µM; in the assay with COLO 205 colon it was 10.6 µM. Moreover, the TGI turned out to be 2.01 µM in the assay with MDA-MB-435; 30.4 µM in the assay on UO-31 renal; 14.5 µM in the assay on OVCAR-3 ovarian; 22.9 µM in the assay on KM12 colon; 20.9 µM in the assay on HCT-15 colon; 26.7 µM in the assay with COLO 205 colon.

`CS(=N)(=O)CCC(N)P(=O)(O)O` (centres undefined): the TGI with MDA-MB-435, in the assay on UO-31 renal, in the assay on OVCAR-3 ovarian, with KM12 colon, with HCT-15 colon and in the assay with COLO 205 colon was above 100 µM each time.

With `Cc1cc(C(O)(c2ccc(Nc3ccccc3)cc2)c2ccc(Nc3ccc(S(=O)(=O)O)cc3)cc2)ccc1N` (centres undefined), the GI50 with MDA-MB-435 was 1.28 µM; with UO-31 renal, 1.12 µM; with OVCAR-3 ovarian, 1.11 µM; with KM12 colon, 1.49 µM; in the assay on HCT-15 colon, 1.04 µM; with COLO 205 colon it was 0.782 µM. Moreover, the TGI in the assay on MDA-MB-435 was found to be 2.69 µM; in the assay with UO-31 renal, 2.38 µM; with OVCAR-3 ovarian it was 2.49 µM; in the assay on KM12 colon it was 3.28 µM; with HCT-15 colon it was 2.95 µM; in the assay with COLO 205 colon it was 2.8 µM.

For the compound `CC(C)OCc1cc(CN2CCN(c3cccc(Cl)c3)CC2)c(O)c2ncccc12`, the GI50 with MDA-MB-435 was 0.923 µM; with UO-31 renal, 0.24 µM; in the assay with OVCAR-3 ovarian it was 0.451 µM; in the assay on KM12 colon, 0.574 µM; in the assay with HCT-15 colon, 0.153 µM; with COLO 205 colon, 5.94 µM. In addition, the TGI in the assay on MDA-MB-435 was determined as 11.4 µM; in the assay on UO-31 renal it was 1.38 µM; with OVCAR-3 ovarian it was 14.8 µM; in the assay with KM12 colon, 13.2 µM; in the assay with HCT-15 colon it was 17.6 µM; with COLO 205 colon, 19.2 µM.
